# Data taken from patent US8901313B2, “6,5-heterocyclic propargylic alcohol compounds and uses therefor” (Genentech, Inc., priority 2011, dated 2014).
# Target: T1, nuclear factor-kappa B (NF-kB)-inducing kinase (NIK) (Homo sapiens, UniProt Q99558)
# T1 construct: made in house; host or cells: baculovirus-infected insect cells
# Experiment: NIK Enzyme Inhibition Assay (Transcreener ADP assay)
# Assay type: biochemical
# Conditions: purified NIK 0.2-1 nM, 10 uM ATP, fluorescence polarization, Morrison's quadratic equation; read-out: inhibitory value (Ki) for NIK
# T1 sequence (Q99558 whole entry): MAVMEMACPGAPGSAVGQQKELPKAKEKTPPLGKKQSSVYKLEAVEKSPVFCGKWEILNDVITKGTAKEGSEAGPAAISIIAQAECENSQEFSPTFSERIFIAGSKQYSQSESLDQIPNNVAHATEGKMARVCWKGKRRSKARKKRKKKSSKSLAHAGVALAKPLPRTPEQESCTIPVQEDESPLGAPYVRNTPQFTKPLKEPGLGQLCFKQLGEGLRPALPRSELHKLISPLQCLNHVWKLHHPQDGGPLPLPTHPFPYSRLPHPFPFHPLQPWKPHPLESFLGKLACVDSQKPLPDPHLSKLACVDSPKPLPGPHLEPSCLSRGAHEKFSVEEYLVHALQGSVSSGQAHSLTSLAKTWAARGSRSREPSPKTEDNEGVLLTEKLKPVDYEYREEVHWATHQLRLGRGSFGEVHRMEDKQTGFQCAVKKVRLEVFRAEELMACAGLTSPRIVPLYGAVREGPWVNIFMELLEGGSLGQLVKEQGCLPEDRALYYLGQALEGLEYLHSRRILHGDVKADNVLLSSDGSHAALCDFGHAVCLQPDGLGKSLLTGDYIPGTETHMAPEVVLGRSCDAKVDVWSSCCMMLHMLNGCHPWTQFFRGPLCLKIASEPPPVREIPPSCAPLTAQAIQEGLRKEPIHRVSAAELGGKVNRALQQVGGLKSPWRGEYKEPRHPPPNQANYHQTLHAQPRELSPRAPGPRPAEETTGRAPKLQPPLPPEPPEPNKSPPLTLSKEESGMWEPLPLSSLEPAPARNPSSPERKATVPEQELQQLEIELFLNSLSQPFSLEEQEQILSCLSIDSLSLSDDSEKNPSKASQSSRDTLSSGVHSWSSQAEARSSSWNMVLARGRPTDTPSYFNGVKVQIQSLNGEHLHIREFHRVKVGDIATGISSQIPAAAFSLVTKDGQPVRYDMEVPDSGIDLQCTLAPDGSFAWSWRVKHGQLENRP
row,SMILES,Ki [nM]
1,"N#Cc1ccc2cnn(-c3nc(N)ncc3[N+](=O)[O-])c2c1 [Example T1-8, 1-(2-amino-5-nitropyrimidin-4-yl)-1H-indazole-6-carbonitrile]",411
2,"CC(C)(O)C#Cc1ccc2nc(C3CC3)n(-c3ccnc(N)n3)c2c1 [Example T1-17, 4-(1-(2-aminopyrimidin-4-yl)-2-cyclopropyl-1H-benzo[d]imidazol-6-yl)-2-methylbut-3-yn-2-ol]",2900
3,"COc1ncccc1Nc1ncnc(-n2ncc3ccc(C#CC(C)(C)O)cc32)n1 [Example T1-24, 4-(1-(4-(2-methoxypyridin-3-ylamino)-1,3,5-triazin-2-yl)-1H-indazol-6-yl)-2-methylbut-3-yn-2-ol]",2100
4,"CN(C)C(=O)c1nn(-c2ccnc(N)n2)c2cc(C#CC(C)(C)O)ccc12 [Example T1-30, 1-(2-aminopyrimidin-4-yl)-6-(3-hydroxy-3-methylbut-1-ynyl)-N,N-dimethyl-1H-indazole-3-carboxamide]",60
5,"COc1ncccc1Nc1cc(-n2ncc3ccc(C#CC(C)(C)O)cc32)ncn1 [Example T1-31, 4-(1-(6-(2-methoxypyridin-3-ylamino)pyrimidin-4-yl)-1H-indazol-6-yl)-2-methylbut-3-yn-2-ol]",4600
6,"Cc1nn(-c2ccnc(N)n2)c2cc(C#C[C@](C)(O)c3nccs3)ccc12 [Example T1-49, (S)-4-(1-(2-aminopyrimidin-4-yl)-3-methyl-1H-indazol-6-yl)-2-(thiazol-2-yl)but-3-yn-2-ol]",847
7,"Cc1csc(C(C)(O)C#Cc2ccc3c(C)nn(-c4ccnc(N)n4)c3c2)n1 (stereo not shown) [Example T1-51, 4-(1-(2-aminopyrimidin-4-yl)-3-methyl-1H-indazol-6-yl)-2-(4-methylthiazol-2-yl)but-3-yn-2-ol]",575
8,"Cc1nn(-c2ccnc(N)n2)c2cc(C#CC3(O)CCN(C)CC3)ccc12 [Example T1-69, 4-((1-(2-aminopyrimidin-4-yl)-3-methyl-1H-indazol-6-yl)ethynyl)-1-methylpiperidin-4-ol]",≥ 5000
9,"CNC(=O)c1nn(-c2ccnc(N)n2)c2cc(C#C[C@@](C)(O)c3cc(C)on3)ccc12 [Example T1.1-15, 1-(2-aminopyrimidin-4-yl)-6-[(3R)-3-hydroxy-3-(5-methylisoxazol-3-yl)but-1-ynyl]-N-methyl-indazole-3-carboxamide]",1
10,"Cc1nn(-c2ccnc(N)n2)c2cc(C#CC3(O)CCN(C)C3=O)ccc12 (stereo not shown) [Example T1.1-16, 3-[2-[1-(2-aminopyrimidin-4-yl)-3-methyl-indazol-6-yl]ethynyl]-3-hydroxy-1-methyl-pyrrolidin-2-one]",1
11,"CCOc1nc2ccc(C#CC(C)(O)c3cc(CO)on3)cc2n1-c1ccnc(N)n1 (stereo not shown) [Example T1.1-17, 4-[3-(2-aminopyrimidin-4-yl)-2-ethoxy-benzimidazol-5-yl]-2-[5-(hydroxymethyl)isoxdazol-3-yl]but-3-yn-2-ol]",1
12,"Cc1nn(-c2ccnc(N)n2)c2cc(C#CC(C)(O)c3cc(CF)on3)ccc12 (stereo not shown) [Example T1.1-19, 4-[1-(2-aminopyrimidin-4-yl)-3-methyl-indazol-6-yl]-2-[5-(fluoromethyl)isoxazol-3-yl]but-3-yn-2-ol]",1
13,"Cc1cc([C@](C)(O)C#Cc2ccc3c(C(N)=O)nn(-c4ccnc(N)n4)c3c2)no1 [Example T1.1-20, 1-(2-aminopyrimidin-4-yl)-6-[(3R)-3-hydroxy-3-(5-methyl-isoxazol-3-yl)but-1-ynyl] indazole-3-carboxamide]",1
14,"CC(O)(C#Cc1ccc2[nH]c(=O)n(-c3ccnc(N)n3)c2c1)c1cc(CO)on1 (stereo not shown) [Example T1.1-21, 3-(2-aminopyrimidin-4-yl)-5-[3-hydroxy-3-[5-(hydroxymethyl)isoxazol-3-yl]but-1-ynyl]-1H-benzimidazol-2-one]",1
15,"Cn1c(=O)n(-c2ccnc(N)n2)c2cc(C#CC3(O)CCn4ccnc43)ccc21 (stereo not shown) [Example T1.1-22, 3-(2-aminopyrimidin-4-yl)-5-[2-(7-hydroxy-5,6-dihydropyrrolo[1,2-a]imidazol-7-yl)ethynyl]-1-methyl-benzimidazol-2-one]",1
16,"Cc1nc([C@](C)(O)C#Cc2ccc3c(C(=O)N4CC(O)C4)nn(-c4nc(N)ncc4Cl)c3c2)no1 [Example T1.1-23, [1-(2-amino-5-chloro-pyrimidin-4-yl)-6-[(3R)-3-hydroxy-3-(5-methyl-1,2,4-oxadiazol-3-yl)but-1-ynyl]indazol-3-yl]-(3-hydroxy-azetidin-1-yl)methanone]",1
17,"Cc1nc([C@](C)(O)C#Cc2ccc3c(C(=O)N4CCC(F)CC4)nn(-c4ccnc(N)n4)c3c2)no1 [Example T1.1-24, [1-(2-aminopyrimidin-4-yl)-6-[(3R)-3-hydroxy-3-(5-methyl-1,2,4-oxadiazol-3-yl)but-1-ynyl]indazol-3-yl]-(4-fluoro-1-piperidyl)methanone]",1
18,"Cc1cc([C@](C)(O)C#Cc2ccc3nc(OC4COC4)n(-c4ccnc(N)n4)c3c2)no1 [Example T1.1-25, (2R)-4-[3-(2-aminopyrimidin-4-yl)-2-(oxetan-3-yloxy)benzimidazol-5-yl]-2-(5-methylisoxazol-3-yl) but-3-yn-2-ol]",1

# These reach a lower Ki. Values come first.
row,Ki [nM],SMILES
1,0.8,"Cc1cc([C@](C)(O)C#Cc2ccc3c(C(=O)N4CCOCC4)nn(-c4ccnc(N)n4)c3c2)no1 [Example T1.1-14, [1-(2-aminopyrimidin-4-yl)-6-[(3R)-3-hydroxy-3-(5-methylisoxazol-3-yl)but-1-ynyl]indazol-3-yl]-morpholino-methanone]"
2,0.6,"Cc1nn(-c2ccnc(N)n2)c2cc(C#CC(C)(O)c3c[nH]cn3)ccc12 (stereo not shown) [Example T1.1-12, 4-[1-(2-aminopyrimidin-4-yl)-3-methyl-indazol-6-yl]-2-(1H-imidazol-4-yl)but-3-yn-2-ol]"
3,0.6,"Cc1cc(C(C)(O)C#Cc2ccc3nc(OCC(O)CO)n(-c4ccnc(N)n4)c3c2)no1 (stereo not shown) [Example T1.1-13, 3-[1-(2-aminopyrimidin-4-yl)-6-[3-hydroxy-3-(5-methylisoxazol-3-yl)but-1-ynyl]benzimidazol-2-yl]oxypropane-1,2-diol]"
4,0.5,"CCOc1nc2ccc(C#CC(C)(O)c3cc(C)on3)cc2n1-c1ccnc(N)n1 (stereo not shown) [Example T1-70, 4-(1-(2-aminopyrimidin-4-yl)-2-ethoxy-1H-benzo[d]imidazol-6-yl)-2-(5-methyl-isoxazol-3-yl)but-3-yn-2-ol]"
5,0.5,"Cc1nc([C@](C)(O)C#Cc2ccc3c(CF)nn(-c4ccnc(N)n4)c3c2)no1 [Example T1.1-8, (2R)-4-[1-(2-aminopyrimidin-4-yl)-3-(fluoromethyl)indazol-6-yl]-2-(5-methyl-1,2,4-oxadiazol-3-yl)but-3-yn-2-ol]"
6,0.5,"Cc1cc([C@](C)(O)C#Cc2ccc3c(C(C)(C)O)nn(-c4ccnc(N)n4)c3c2)no1 [Example T1.1-9, (2R)-4-[1-(2-aminopyrimidin-4-yl)-3-(1-hydroxy-1-methyl-ethyl)indazol-6-yl]-2-(5-methyl-isoxazol-3-yl)but-3-yn-2-ol]"
7,0.5,"Cc1cc([C@](C)(O)C#Cc2ccc3c(c2)n(-c2ccnc(N)n2)c(=O)n3C)no1 [Example T1.1-10, 3-(2-aminopyrimidin-4-yl)-5-[(3R)-3-hydroxy-3-(5-methylisoxazol-3-yl)but-1-ynyl]-1-methyl-benzimidazol-2-one]"
8,0.4,"Cc1nc([C@](C)(O)C#Cc2ccc3c(C(C)(C)O)nn(-c4ccnc(N)n4)c3c2)no1 [Example T1.1-7, (2R)-4-[1-(2-aminopyrimidin-4-yl)-3-(1-hydroxy-1-methyl-ethyl)indazol-6-yl]-2-(5-methyl-1,2,4-oxadiazol-3-yl) but-3-yn-2-ol]"
9,0.32,"Cc1cc([C@](C)(O)C#Cc2ccc3nc(C)n(-c4ncnc(N)n4)c3c2)no1 [Example T1.1-5, (2R)-4-[3-(4-amino-1,3,5-triazin-2-yl)-2-methyl-benzimidazol-5-yl]-2-(5-methylisoxazol-3-yl)but-3-yn-2-ol]"
10,0.32,"Cc1cc(C(C)(O)C#Cc2ccc3c(C(C)(O)C4CC4)nn(-c4ccnc(N)n4)c3c2)no1 (stereo not shown) [Example T1.1-6, 4-[1-(2-aminopyrimidin-4-yl)-3-(1-cyclopropyl-1-hydroxy-ethyl)indazol-6-yl]-2-(5-methylisoxazol-3-yl)but-3-yn-2-ol]"
11,0.22,"Cc1cc([C@](C)(O)C#Cc2ccc3c(CO)nn(-c4ccnc(N)n4)c3c2)no1 [Example T1.1-4, (2R)-4-[1-(2-aminopyrimidin-4-yl)-3-(hydroxymethyl)indazol-6-yl]-2-(5-methyl-isoxazol-3-yl)but-3-yn-2-ol]"
12,0.2,"Cc1nc2ccc(C#C[C@@](C)(O)c3nccs3)cc2n1-c1ncnc(N)n1 [Example T1.1-2, (2R)-4-[3-(4-amino-1,3,5-triazin-2-yl)-2-methyl-benzimidazol-5-yl]-2-thiazol-2-yl-but-3-yn-2-ol]"
13,0.2,"Cc1cc(C(C)(O)C#Cc2ccc3c(C(O)C(C)C)nn(-c4ccnc(N)n4)c3c2)no1 (stereo not shown) [Example T1.1-3, 4-[1-(2-aminopyrimidin-4-yl)-3-(1-hydroxy-2-methyl-pro-pyl)indazol-6-yl]-2-(5-methyl-isoxazol-3-yl)but-3-yn-2-ol]"
14,0.16,"CN(C)C(=O)c1nn(-c2ccnc(N)n2)c2cc(C#C[C@@](C)(O)c3nccs3)ccc12 [Example T1-46, (R)-1-(2-aminopyrimidin-4-yl)-6-(3-hydroxy-3-(thiazol-2-yl)but-1-ynyl)-N,N-dimethyl-1H-indazole-3-carboxamide]"
15,0.11,"C[C@@](O)(C#Cc1ccc2[nH]c(=O)n(-c3ccnc(N)n3)c2c1)c1nccs1 [Example T1-47, (R)-1-(2-aminopyrimidin-4-yl)-6-(3-hydroxy-3-(thiazol-2-yl)but-1-ynyl)-1H-benzo[d] imidazol-2(3H)-one]"
16,0.1,"Cc1cc([C@](C)(O)C#Cc2ccc3[nH]c(=O)n(-c4ccnc(N)n4)c3c2)no1 [Example T1.1-1, 3-(2-aminopyrimidin-4-yl)-[(3R)-3-hydroxy-3-(5-methyl-isoxazol-3-yl)but-1-ynyl]-1H-benzimidazol-2-one]"
